Results on 44 compounds are retold here after the Deep4Chem optical property database.

The data set is described as follows: solvent given as SMILES.

Where the note is “in C1COCCO1”, `COC(=O)c1ccc(/C=C2\C=C(c3ccc(C#N)cc3)OC2=O)cc1` gave an absorption maximum of 404 nm.
On to `c1ccc2c(c1)c1ccccc1c1ccccc21`, for which the absorption maximum (in ClCCl) is recorded as 286 nm.
Turning to `Clc1nc(Cl)nc(Nc2ccc3ccc4cccc5ccc2c3c45)n1`, the absorption maximum was determined as 341 nm (in CC#N), 341 nm (in CCCCOCCCC) and 340 nm (in CO).
`CCCCCCCCCCCCC(CCCCCCCCCC)Cn1c2cc(/C=C/C=C(C#N)C#N)c3cccc4c5cccc6c(/C=C/C=C(C#N)C#N)cc1c(c65)c2c34` (stereo not drawn) gave an absorption maximum (in C1CCCCC1) of 638 nm, an absorption maximum (in CC#N) of 599 nm, an absorption maximum (in Cc1ccccc1) of 597 nm and an absorption maximum (in ClCCl) of 611 nm.
For the compound `CCCCN1\C(=C/C=C/C=C/C2=[N+](CCCC)c3ccc4cc(Br)ccc4c3C2(C)C)C(C)(C)c2c1ccc1cc(Br)ccc21`, the absorption maximum by setting is: (in C1CCOC1) 685 nm; (in CC#N) 682 nm; (in CC(C)=O) 685 nm; (in CCO) 688 nm; (in CN(C)C=O) 689 nm; (in CO) 683 nm. In addition, the absorption maximum runs as follows: (in CS(C)=O) 692 nm; (in ClCCl) 699 nm.
Where the note is “in ClC(Cl)Cl”, `O=C1[C@@H]2[C@H](C(=O)N1c1cccc3cc4ccccc4cc13)[C@@H]1C=C[C@H]2C1` yielded an absorption maximum of 384 nm.
Consider `Cc1cc(C)c([B-]2(c3c(C)cc(C)cc3C)[O+]=P(c3ccccc3)(c3ccccc3)c3cc(-c4ccc(C(F)(F)F)cc4)sc3-c3sc(-c4ccc(C(F)(F)F)cc4)cc32)c(C)c1`, for which the absorption maximum (in C1CCOC1) came to 405 nm.
Regarding `C(=C\c1ccc(-c2nnc(-c3ccccc3)o2)cc1)/c1ccc(-c2nnc(-c3ccccc3)o2)cc1`, the absorption maximum (in CN(C)C=O) stood at 347 nm.
`COC(=O)/C(C#N)=c1\s/c(=c2/s/c(=C(/C#N)C(=O)OC)c3cc(-c4ccc(F)cc4)sc23)c2sc(-c3ccc(F)cc3)cc12` showed an absorption maximum (in Cc1ccccc1) of 602 nm.
Turning to `CN(C)c1ccc2[c](c1)[Sn]([CH3])([CH3])[C]1=CC(=[N+](C)C)C=CC1=C2`, where the note is “in O”, the absorption maximum is 614 nm.
In turn, `CC1=C(/C=C/c2ccccc2)C(C)=[N+]2C1=C(c1ccccc1)c1c(C)c(/C=C/c3ccccc3)c(C)n1[B-]2(F)F` returned an absorption maximum (in ClC(Cl)Cl) of 575 nm.
`c1cc2cc(c1)c1cccc(c1)c1ccc3ccc4ccc(cc4c3c1)c1cccc(c1)c1cccc2c1`: the absorption maximum (in Cc1ccccc1) is reported as 343 nm.
The compound `O=S1(=O)c2ccc(-c3ccc(-n4c5ccccc5c5ccccc54)cc3)cc2C2(c3ccccc3-c3ccccc32)c2cc(-c3ccc(-n4c5ccccc5c5ccccc54)cc3)ccc21` displayed an absorption maximum (in ClCCl) of 341 nm.
As for `O=C(O)c1ccc(C(=O)O)c2cc3ccccc3cc12`, the absorption maximum was determined as 396 nm (in C1CCOC1) and 390 nm (in CN(C)C=O).
For the compound `Cn1c(-c2ccc(-c3nc(-c4ccccc4)c(-c4ccccc4)n3C)s2)nc(-c2ccccc2)c1-c1ccccc1`, under “in CC#N”, the absorption maximum amounted to 391 nm.
Turning to `CCN(CC)c1ccc(-c2nc3c4ccccc4n(C)c3nc2-c2ccc(B(c3c(C)cc(C)cc3C)c3c(C)cc(C)cc3C)cc2)cc1`, the absorption maximum (in C1CCOC1) stood at 416 nm.
Regarding `c1ccc(-c2ccc(-c3ccc(-n4c5ccccc5c5ccccc54)cc3)c3nsnc23)cc1`, the absorption maximum by setting is: (in C1CCOC1) 394 nm; (in CC(C)=O) 382 nm; (in CCCCCC) 394 nm; (in CCOCC) 392 nm.
Consider `CN(C)c1ccc(-c2nc3nc4ccccc4nc3n2-c2ccccc2)cc1`, for which, under “in CC#N”, the absorption maximum came out at 411 nm.
Consider `CCOC(=O)c1c2c3c(ccc(Cl)c3c3cc4c(cc13)[Si](C)(C)O[Si]4(C)C)N(C)C2=O`, for which, where the note is “in CC#N”, the absorption maximum was 378 nm.
On to `CC(C)c1ccc2ccc3c(C(C)C)ccc4ccc1c2c43`, for which the absorption maximum is, setting by setting: (in CCCCCC) 345 nm; (in CO) 343 nm; (in ClCCl) 346 nm.
`CN(C)c1ccc(/C=C2/N=C(c3ccccc3)OC2=O)cc1` came in with an absorption maximum (in C1CCCCC1) of 456 nm; an absorption maximum (in C1COCCO1) of 466 nm; an absorption maximum (in CC#N) of 473 nm; an absorption maximum (in CC(C)=O) of 470 nm; an absorption maximum (in CC(C)O) of 470 nm; an absorption maximum (in CCCCCC) of 443 nm. Further, the absorption maximum by setting is: (in CCCCCO) 470 nm; (in CCCCO) 472 nm; (in CCO) 470 nm; (in CN(C)C=O) 482 nm; (in CO) 473 nm; (in ClC(Cl)(Cl)Cl) 466 nm. Moreover, the absorption maximum reads like this: (in ClC(Cl)Cl) 472 nm; (in ClCCl) 472 nm.
As to `O=C(c1ccc(-n2c3ccccc3c3cc(-n4c5ccccc5c5ccccc54)ccc32)cc1)c1ccc(-n2c3ccccc3c3cc(-n4c5ccccc5c5ccccc54)ccc32)cn1`, the absorption maximum (in Cc1ccccc1) was determined as 345 nm.
In the case of `COC(=O)c1cc(=O)n(C)c2cc(-c3ccc4c(c3)OCO4)sc12`, the absorption maximum worked out at 400 nm (in CC#N) and 404 nm (in ClCCl).
In the case of `N#Cc1c(N2CCCCC2)cc(-c2ccccc2)c2c1-c1ccccc1C2=O`, the absorption maximum (in C1CCOC1) is reported as 392 nm.
Take `CCOC(=O)c1cc(C(=O)OCC)c2cc(C)ccc2n1`: under “in CCO”, the absorption maximum came out at 330 nm.
`CCCCN(CCCC)c1ccc2c#cc3cc4c#cc5ccc(C(F)(F)F)cc5c#cc#cc5cc(C(F)(F)F)ccc5c#cc4cc3c#cc3ccc(N(CCCC)CCCC)cc3c#cc#cc2c1` gave an absorption maximum (in ClCCl) of 450 nm.
As to `Cc1c(C)n2c(COC(=O)c3ccccc3O)c(C)c(=O)n2c1=O`, the absorption maximum (in CCO) was determined as 379 nm.
As for `COC(=O)CNC(=O)c1nc2c(N(C)C)nc(N(C)C)nc2n1Cc1ccccc1`, the absorption maximum is on record as 336 nm (in C1COCCO1), 336 nm (in CC#N), 340 nm (in CO) and 343 nm (in ClCCl).
As to `CC1(C)CC(=O)C2=C(C1)Oc1ccc3ccc(O)cc3c1C2c1ccccn1` (stereo not drawn), the absorption maximum is listed as 335 nm (in C1CCOC1); 335 nm (in C1COCCO1); 334 nm (in CC#N); 276 nm (in CCCCCCC); 334 nm (in CCO); 341 nm (in CO). Also, the absorption maximum (in O) was 274 nm.
As to `c1ccc2c(c1)-c1cc(-n3c4ccccc4c4ccccc43)ccc1C21c2ccccc2-n2c3ccccc3c3cccc1c32` (stereo not drawn), the absorption maximum (in ClCCl) worked out at 339 nm.
Consider `C(=C\c1nc2ccccc2o1)/c1ccccc1`, for which the absorption maximum (in C1CCCCC1) was determined as 320 nm and the absorption maximum (in CO) is recorded as 320 nm.
Take `Cn1c2cc(N3CCCCC3)c(F)cc2c(=O)c2cc(F)c(N3CCCCC3)cc21`: the absorption maximum (in CCO) came to 368 nm.
With `CC(=O)O[B-]1(OC(C)=O)OC(/C=C/C=C/c2ccccc2)=CC(/C=C/C=C/c2ccccc2)=[O+]1`, the absorption maximum is listed as 468 nm (in C1CCOC1); 472 nm (in CC#N); 468 nm (in CC(C)=O); 478 nm (in CS(C)=O); 470 nm (in Cc1ccccc1); 474 nm (in ClC(Cl)Cl). Under “in ClCCl”, this compound returned an absorption maximum of 474 nm.
As for `CC1(C)c2ccccc2N(c2ccc(-c3ccc(C#N)cn3)cc2)c2ccccc21`, the absorption maximum (in Cc1ccccc1) was 384 nm.
For the setting “in Cc1ccccc1”, `Cc1cc(C)c(B(c2ccccc2N(c2ccccc2)c2ccccc2)c2c(C)cc(C)cc2C)c(C)c1` returned an absorption maximum of 415 nm.
With `COc1ccc2n1[B-](F)(F)[N+]1=CC=CC1=C2c1ccccc1`, the absorption maximum was 493 nm (in CC#N); 499 nm (in CCCCCC); 495 nm (in CCOC(C)=O); 495 nm (in CO); 499 nm (in ClCCl).
Regarding `CC1(C)Cc2c(c3ccccc3c3nc4ccccc4nc23)O1`, the absorption maximum stood at 456 nm (in C1CCCCC1); 459.98 nm (in C1CCOC1); 457.04 nm (in CN(C)C=O); 458.09 nm (in CO); 459.98 nm (in ClC(Cl)Cl); 458.09 nm (in c1ccccc1).
For the compound `CCCCCCCCCCCCCCCCOc1cc(C#Cc2ccc3ccccc3c2-c2c(C#Cc3cc(OCCCCCCCCCCCCCCCC)c(C#Cc4ccc(C=C(C#N)C#N)cc4)cc3OCCCCCCCCCCCCCCCC)ccc3ccccc23)c(OCCCCCCCCCCCCCCCC)cc1C#Cc1ccc(C=C(C#N)C#N)cc1`, the absorption maximum runs as follows: (in Brc1ccccc1) 442 nm; (in C1CCCCC1) 444 nm; (in C1CCOC1) 425 nm; (in C1COCCO1) 425 nm; (in CCCCCC) 442 nm; (in CCCCCCCCO) 431 nm. The absorption maximum by setting is: (in CCCCOCCCC) 435 nm; (in CCOC(C)=O) 426 nm; (in CCOCC) 429 nm; (in Cc1ccccc1) 436 nm; (in ClC(Cl)(Cl)Cl) 447 nm; (in ClC(Cl)Cl) 446 nm. This compound also came in with an absorption maximum (in ClCCl) of 436 nm.
Regarding `O=c1[nH]nc(-c2ccc(/C=C/c3ccc(-c4n[nH]c(=O)o4)cc3)cc2)o1`, under “in CN(C)C=O”, the absorption maximum is listed as 334 nm.
`CCCCn1c2ccccc2c2ccc3c4cc(-c5ccc(OC)cc5)ccc4n(CCCC)c3c21`: the absorption maximum (in ClC(Cl)Cl) is reported as 333 nm.
`C=Cc1cc2cc3c(cc2oc1=O)OCO3`: the absorption maximum (in CC#N) stood at 363 nm.
Under “in C1CCOC1”, `CCC1(CC)c2cc(-c3cccs3)ccc2-c2c1c1c(c3c2C(CC)(CC)c2cc(-c4cccs4)ccc2-3)C(CC)(CC)c2cc(-c3cccs3)ccc2-1` registered an absorption maximum of 340 nm.
In turn, `c1cc2ccc3ccc(OP4(Oc5ccc6ccc7cccc8ccc5c6c78)=NP(Oc5ccc6ccc7cccc8ccc5c6c78)(Oc5ccc6ccc7cccc8ccc5c6c78)=NP(Oc5ccc6ccc7cccc8ccc5c6c78)(Oc5ccc6ccc7cccc8ccc5c6c78)=N4)c4ccc(c1)c2c34` registered an absorption maximum (in ClCCl) of 343 nm.
With `CCCCCCN1C(=O)c2cccc3cc(/N=C\c4ccc5c(c4)c4ccccc4n5CC)cc(c23)C1=O`, the absorption maximum (in ClC(Cl)Cl) is given as 340 nm.
